Measurements: BindingDB's records for doi:10.1021/jm00001a011 (University of Auckland, 1995)

Assay: Inhibitory concentration of the against pp60v-src tyrosine kinase obtained from v-src baculovirus-infected insect cells

Compound | IC50 [µM]
CN(C)C(=O)c1c(SSc2c(C(=O)N(C)C)c3ccccc3n2C)n(C)c2ccccc12 [1,3N,3N-trimethyl-2-(3-dimethylcarbamoyl-1-methyl-1H-2-indolyldisulfanyl)-1H-3-indolecarboxamide0.5 H2O] | 0.5
O=C(O)CCc1c(SSc2[nH]c3ccccc3c2CCC(=O)O)[nH]c2ccccc12 [2,2 -Dithiobis(1H-indole-3-propanoic acid)] | 5.1
Cn1c(SSc2c(C(N)=O)c3ccccc3n2C)c(C(N)=O)c2ccccc21 [2-(3-carbamoyl-1-methyl-1H-2-indolyldisulfanyl)-1-methyl-1H-3-indolecarboxamide0.5 H2O] | 0.8
Cn1c(SSc2c(C(=O)Nc3ccccc3C(=O)O)c3ccccc3n2C)c(C(=O)Nc2ccccc2C(=O)O)c2ccccc21 [2-{2-[3-(2-carboxyphenylcarbamoyl)-1-methyl-1H-2-indolyldisulfanyl]-1-methyl-1H-3-indolylcarboxamido}benzoic acid2.0 H2O] | 3.5
Cn1c(SSc2c(C(=O)Nc3cccc(C(=O)O)c3)c3ccccc3n2C)c(C(=O)Nc2cccc(C(=O)O)c2)c2ccccc21 [3-{2-[3-(3-carboxyphenylcarbamoyl)-1-methyl-1H-2-indolyldisulfanyl]-1-methyl-1H-3-indolylcarboxamido}benzoic acid0.5 H2O] | 5.3
Cn1c(SSc2c(C(=O)NCC(O)CO)c3ccccc3n2C)c(C(=O)NCC(O)CO)c2ccccc21 (configuration not stated) [3N-(2,3-dihydroxypropyl)-2-[3-(2,3-dihydroxypropylcarbamoyl)-1-methyl-1H-2-indolyldisulfanyl]-1-methyl-1H-3-indolecarboxamide] | 22.5
Cn1c(SSc2c(C(=O)Nc3cccs3)c3ccccc3n2C)c(C(=O)Nc2cccs2)c2ccccc21 [3N-(2-thienyl)-1-methyl-2-[1-methyl-3-(2-thienylcarbamoyl)-1H-2-indolyldisulfanyl]-1H-3-indolecarboxamide] | > 50
Cn1c(SSc2c(C(=O)Nc3cccnc3)c3ccccc3n2C)c(C(=O)Nc2cccnc2)c2ccccc21 [3N-(3-pyridyl)-1-methyl-2-[1-methyl-3-(3-pyridylcarbamoyl)-1H-2-indolyldisulfanyl]-1H-3-indolecarboxamide] | > 50
Cn1c(SSc2c(C(=O)NCc3ccccc3)c3ccccc3n2C)c(C(=O)NCc2ccccc2)c2ccccc21 [3N-benzyl-2-(3-benzylcarbamoyl-1-methyl-1H-2-indolyldisulfanyl)-1-methyl-1H-3-indolecarboxamide] | 8
O=C(NCc1ccccc1)c1c(SSc2[nH]c3ccccc3c2C(=O)NCc2ccccc2)[nH]c2ccccc12 [3N-benzyl-2-(3-benzylcarbamoyl-1H-2-indolyldisulfanyl)-1H-3-indolecarboxamide] | 16.3
CCn1c(SSc2c(C(=O)Nc3ccccc3)c3ccccc3n2CC)c(C(=O)Nc2ccccc2)c2ccccc21 [3N-phenyl-1-ethyl-2-(1-ethyl-3-phenylcarbamoyl-1H-2-indolyldisulfanyl)-1H-3-indolecarboxamide] | > 100
O=C(Nc1ccccc1)c1c(SSc2[nH]c3ccccc3c2C(=O)Nc2ccccc2)[nH]c2ccccc12 [3N-phenyl-2-(3-phenylcarbamoyl-1H-2-indolyldisulfanyl)-1H-3-indolecarboxamide] | 7.6
Cn1c(SSc2c(C(=O)c3ccc(C(=O)O)cc3)c3ccccc3n2C)c(C(=O)c2ccc(C(=O)O)cc2)c2ccccc21 [4-{2-[3-(4-carboxybenzoyl)-1-methyl-1H-2-indolyldisulfanyl]-1-methyl-1H-3-indolylcarbonyl}benzoic acid2 H2O] | 4
Cn1c(SSc2c(C(=O)Nc3ccc(C(=O)O)cc3)c3ccccc3n2C)c(C(=O)Nc2ccc(C(=O)O)cc2)c2ccccc21 [4-{2-[3-(4-carboxyphenylcarbamoyl)-1-methyl-1H-2-indolyldisulfanyl]-1-methyl-1H-3-indolylcarboxamido}benzoic acid H2O] | 4.3
Cn1c(SSc2c(C(=O)NCC(=O)O)c3ccccc3n2C)c(C(=O)NCC(=O)O)c2ccccc21 [({2-[3-(Carboxymethyl-carbamoyl)-1-methyl-1H-indol-2-yldisulfanyl]-1-methyl-1H-indole-3-carbonyl}-amino)-acetic acid] | 1
Cc1c(SSc2c(C)c3ccccc3n2C)n(C)c2ccccc12 [di(1,3-dimethyl-1H-2-indolyl) disulfide] | > 50
c1ccc(-c2c(SSc3[nH]c4ccccc4c3-c3ccccc3)[nH]c3ccccc23)cc1 [di(3-phenyl-1H-2-indolyl) disulfide] | > 100
COC(=O)c1ccccc1NC(=O)c1c(SSc2c(C(=O)Nc3ccccc3C(=O)OC)c3ccccc3n2C)n(C)c2ccccc12 [methyl 2-{1-methyl-2-[1-methyl-3-(2-methyloxycarbonylphenylcarbamoyl)-1H-2-indolyldisulfanyl]-1H-3-indolylcarboxamido}benzoate0.5 H2O] | 15.6
COC(=O)c1cccc(NC(=O)c2c(SSc3c(C(=O)Nc4cccc(C(=O)OC)c4)c4ccccc4n3C)n(C)c3ccccc23)c1 [methyl 3-{1-methyl-2-[1-methyl-3-(3-methyloxycarbonylphenylcarbamoyl)-1H-2-indolyldisulfanyl]-1H-3-indolylcarboxamido}benzoate] | 5.4
COC(=O)c1ccc(C(=O)c2c(SSc3c(C(=O)c4ccc(C(=O)OC)cc4)c4ccccc4n3C)n(C)c3ccccc23)cc1 [methyl 4-{1-methyl-2-[1-methyl-3-(4-methyloxycarbonylbenzoyl)-1H-2-indolyldisulfanyl]-1H-3-indolylcarbonyl}benzoate] | 7.1
COC(=O)c1ccc(CNC(=O)c2c(SSc3c(C(=O)NCc4ccc(C(=O)OC)cc4)c4ccccc4n3C)n(C)c3ccccc23)cc1 [methyl 4-{1-methyl-2-[1-methyl-3-(4-methyloxycarbonylbenzylcarbamoyl)-1H-2-indolyldisulfanyl]-1H-3-indolylcarboxamidomethyl}benzoate0.5 H2O] | 2.5
COC(=O)c1ccc(NC(=O)c2c(SSc3c(C(=O)Nc4ccc(C(=O)OC)cc4)c4ccccc4n3C)n(C)c3ccccc23)cc1 [methyl 4-{1-methyl-2-[1-methyl-3-(4-methyloxycarbonylphenylcarbamoyl)-1H-2-indolyldisulfanyl]-1H-3-indolylcarboxamido}benzoate H2O] | 4.2
